For series [1], the species on record is Homo sapiens. Briefly: cells.
Description: Compound was tested for the concentration to inhibit 50% of anti-IgE-stimulated histamine release from human basophils.
Series [2] in a line: physchem. As to conditions: buffer, pH 7.4.
Description: Log P value was determined at pH 7.4 using correlation (HPLC) method.
A short description of series [3]: physchem. The note with it: buffer, pH 7.4. This is another data set of the same source.
Description: Solubility was determined at pH 7.4
For series [4], the species on record is Homo sapiens. Briefly: cells. This is another data set of the same source.
Description: Percent inhibition of histamine release from human basophils at a concentration of 10 uM.
Series [5] is filed under the species Homo sapiens. As to the kind of experiment: cells. This is another data set of the same source.
Description: Percent inhibition of histamine release from human basophils at a concentration of 33 uM.

Values after ≈ are worked out from the molar mass of the structure shown.

The IC50 is the concentration at which inhibition is half-maximal. In general, chromatographic logD refers to lipophilicity estimated from chromatographic retention. Higher therefore signals higher lipophilicity. Usually solubility stands for the concentration that dissolves in the medium under given conditions. Low values mean a poorly soluble substance, high ones a readily soluble substance. The inhibition is how much of the control response was suppressed. Read a low inhibition as little suppression.

As for `COc1ccc2c(c1)c1oc(C(=O)Nc3nn[nH]n3)c(OC)c1n2-c1ccccc1`, 8.5 µM corresponded to half-maximal inhibition in series [1] (IC50). Besides, in series [2], the chromatographic logD worked out at 2.8. For the same compound, the solubility in series [3] is less than 1 µg/mL. 10 µM produced 66% inhibition in series [4]. This compound also came in with an inhibition at 33 µM in series [5] of 91%.
For `Cc1sc(C(=O)Nc2nn[nH]n2)c(OC(C)C)c1Br`, in that order: 2 µM, 1.72, 3300 µg/mL (≈ 9.53 mM), 85% and 97%.
`Cc1sc(C(=O)Nc2nn[nH]n2)c(OC(C)C)c1C` gave an inhibition at 10 µM in series [4] of less than 25%. In series [5], this compound registered an inhibition at 33 µM of less than 25%.
In series [1], `CCOc1c(C(=O)Nc2nn[nH]n2)sc(C)c1Br` registered an IC50 of 5 µM. This compound also yielded an inhibition at 10 µM in series [4] of 77%. Besides, the inhibition at 33 µM in series [5] turned out to be 100%.
In turn, `COc1c(Br)cc(C(=O)Nc2nn[nH]n2)c(OC(C)C)c1Br` gave an inhibition at 10 µM in series [4] of less than 25%. The compound also showed an inhibition at 33 µM in series [5] of 28%.
In turn, `COc1ccc2c(c1)c(OC(C)C)c(C(=O)Nc1nn[nH]n1)n2-c1ccccc1` displayed a chromatographic logD in series [2] of 2.66. This compound also yielded a solubility in series [3] of 70 µg/mL (≈ 0.178 mM). Further, the inhibition at 10 µM in series [4] is 46%. Besides, in series [5], testing at 33 µM gave an inhibition of 82%.
In turn, `COc1ccc(C(=O)Nc2nn[nH]n2)c(OC(C)C)c1Br` returned an inhibition at 10 µM in series [4] of less than 25%. The inhibition at 33 µM in series [5] turned out to be 60%.
The matching figures for `COc1ccc(C(=O)Nc2nn[nH]n2)c(OC(C)C)c1`: less than 25% and 41%.
The compound `Cc1sc(C(=O)Nc2nn[nH]n2)c(OC(C)C)c1OC(C)C` registered an inhibition at 10 µM in series [4] of less than 25%. This compound also yielded an inhibition at 33 µM in series [5] of less than 25%.
Turning to `Cc1sc(C(=O)Nc2nn[nH]n2)c(OCc2ccccc2)c1Br`, in series [1], the IC50 was determined as 5 µM. 10 µM produced 68% inhibition in series [4]. Besides, the inhibition at 33 µM in series [5] came to 91%.
Take `CC(C)Oc1c(Br)c(Br)n(C)c1C(=O)Nc1nn[nH]n1`: in series [1], the IC50 turned out to be 25 µM. Moreover, in series [2], the chromatographic logD was found to be 2.52. For the same compound, the solubility in series [3] is 1900 µg/mL (≈ 4.66 mM). Further, the inhibition at 10 µM in series [4] came to 37%. The compound further gave an inhibition at 33 µM in series [5] of 69%.
For `COc1sc(C(=O)Nc2nn[nH]n2)c(OC(C)C)c1Br`, in that order: 2 µM, 1.35, 1900 µg/mL (≈ 5.25 mM), 92% and 95%.
On to `CC(C)Sc1c(C(=O)Nc2nn[nH]n2)oc(Br)c1Br`, for which the inhibition at 10 µM in series [4] is less than 25%. In series [5], this compound registered an inhibition at 33 µM of less than 25%.
Consider `CC(C)Oc1c(Br)c(Br)n(-c2ccccc2)c1C(=O)Nc1nn[nH]n1`, for which, in series [4], the inhibition at 10 µM is less than 25%. The same compound showed an inhibition at 33 µM in series [5] of less than 25%.
In series [4], `CC(C)Oc1c(C(=O)Nc2nn[nH]n2)sc(C(C)C)c1Br` showed an inhibition at 10 µM of less than 25%. For the same compound, the inhibition at 33 µM in series [5] was less than 25%.
Take `CC(C)Oc1c(Br)csc1C(=O)Nc1nn[nH]n1`: at 10 µM the inhibition in series [4] was 30%. Moreover, the inhibition at 33 µM in series [5] was determined as 47%.
Regarding `Cc1sc(C(=O)Nc2nn[nH]n2)c(SC(C)C)c1Br`, 5 µM corresponded to half-maximal inhibition in series [1] (IC50). In series [4], this compound showed an inhibition at 10 µM of 74%. The same compound came in with an inhibition at 33 µM in series [5] of 90%.
In series [4], `Cc1cc(OC(C)C)c(C(=O)Nc2nn[nH]n2)s1` returned an inhibition at 10 µM of less than 25%. For the same compound, the inhibition at 33 µM in series [5] was less than 25%.
In the case of `CC(C)Oc1c(Br)c(Br)n(Cc2ccccc2)c1C(=O)Nc1nn[nH]n1`, the inhibition at 10 µM in series [4] was less than 25%. Besides, the inhibition at 33 µM in series [5] is less than 25%.
In series [4], `CC(C)Oc1c(C(=O)Nc2nn[nH]n2)sc(-c2ccccc2)c1Br` returned an inhibition at 10 µM of less than 25%. Besides, the inhibition at 33 µM in series [5] is less than 25%.
In series [4], `CC(C)Oc1c(C(=O)Nc2nn[nH]n2)[nH]c(Br)c1Br` registered an inhibition at 10 µM of less than 25%. Further, the inhibition at 33 µM in series [5] is less than 25%.
Consider `COc1c(C(=O)Nc2nn[nH]n2)sc(C)c1Br`, for which the inhibition at 10 µM in series [4] is less than 25%. The same compound returned an inhibition at 33 µM in series [5] of 53%.
The matching figures for `CCCc1c2oc(C(=O)O)cc(=O)c2cc2c(=O)cc(C(=O)O)n(CC)c12` [NEDOCROMIL]: less than 25% and less than 25%.
In series [1], `COc1ccc2sc(C(=O)Nc3nnn[nH]3)c(OC(C)C)c2c1` returned an IC50 of 1.1 µM. This compound also gave a chromatographic logD in series [2] of 1.78. This compound displayed a solubility in series [3] of 1840 µg/mL (≈ 5.52 mM). The compound further came in with an inhibition at 10 µM in series [4] of 95%. Also, 33 µM produced 97% inhibition in series [5].
Regarding `COc1ccc(C(=O)Nc2nn[nH]n2)c(OC(C)C)c1[Si](C)(C)C`, the inhibition at 10 µM in series [4] was less than 25%. In series [5], this compound displayed an inhibition at 33 µM of less than 25%.
Turning to `COc1ccc(C(=O)Nc2nn[nH]n2)c(OC(C)C)c1I`, half-maximal inhibition in series [1] (IC50) required 10 µM. For the same compound, in series [2], the chromatographic logD was determined as 1.17. The compound also came in with an inhibition at 10 µM in series [4] of 51%. Moreover, the inhibition at 33 µM in series [5] stood at 73%.
As for `Cc1sc(C(=O)Nc2nn[nH]n2)c(OC(C)C)c1C(C)C`, the inhibition at 10 µM in series [4] is less than 25%. This compound also showed an inhibition at 33 µM in series [5] of less than 25%.
In series [1], `Cc1sc(C(=O)Nc2nn[nH]n2)c(OC(C)C)c1Cl` displayed an IC50 of 8 µM. The inhibition at 10 µM in series [4] amounted to 55%. 33 µM produced 88% inhibition in series [5].

The values above are taken from ChEMBL document CHEMBL1125586, “Novel thiophene-, pyrrole-, furan-, and benzenecarboxamidotetrazoles as potential antiallergy agents” (J Med Chem, 1991).
